Assay results from US8138212B2, “Synergistic microbicidal compositions” (Rohm and Haas Company, priority 2009, dated 2012).
Like-named read-outs stand apart in the source and are kept apart here.

Legend:
Assay type in all cases: cell-based
[1] = test system: Candida albicans (C. albicans—ATCC 10231); assay: Synergy test, microtiter plate high resolution MIC assay, yeast; details: for MIC: Candida albicans
Text: (§1) One skilled in the art will recognize that the sensitivity of other microorganisms to the particular combinations will vary and, as a result, the concentrations, the ratios, for each, or both, of the compounds may vary from those detailed in these examples. The concentrations and ratios may also vary under different test conditions or with different test methods. One measure of synergy is the industrially accepted method described by Kull, […]. and Mayer, R. L., in Applied Microbiology 9:538-541 (1961), using the ratio determined by the formula: Qa/QA+Qb/QB=Synergy Index (“SI”) wherein: • QA=concentration of compound A (first component) in ppm, acting alone, which produced an end point (MIC of Compound A). • Qa=concentration of compound A in ppm, in the mixture, which produced an end point. • QB=concentration of compound B (second component) in ppm, acting alone, which produced an end point (MIC of Compound B). • Qb=concentration of compound B in ppm, in the mixture, which produced an end point. When the sum of Qa/QA and Qb/QB is greater than one, antagonism is indicated. […] The lower the SI, the greater is the synergy shown by that particular mixture. The minimum inhibitory concentration (MIC) of a microbicide is the lowest concentration tested under a specific set of conditions that prevents the growth of the tested microorganisms. Synergy tests were conducted using standard microtiter plate assays with media designed for optimal growth of the test microorganism. Minimal salt medium supplemented with 0.2% glucose and 0.1% yeast extract ([…] medium) was used for testing bacteria; Potato Dextrose Broth (PDB medium) was used for testing yeast and mold. In this method, a wide range of combinations of microbicides and other personal care raw materials was tested by conducting high resolution MIC assays in the presence of various concentrations of MIT, or BIT. […] The synergy of the combinations of the present invention was determined against a bacterium, Escherichia coli (E. coli-ATCC #8739), and/or a yeast, Candida albicans (C. albicans-ATCC 10231), and/or a mold, Aspergillus niger (A. niger-ATCC 16404). The bacteria were used at a concentration of about 5×10^6 bacteria per mL and the yeast and mold at 5×10^5 fungi per mL. These microorganisms are representative of natural contaminants in many consumer and industrial applications. […] (yeast and mold) or 30° C. (bacteria). […] In each test, First Component (A) was MIT and the Second Component (B) was the other microbicide, formulation ingredient, or raw material.

[2] = test system: Aspergillus niger (A. niger—ATCC 16404); assay: Synergy test, microtiter plate high resolution MIC assay, mold; details: for MIC: Aspergillus niger
Text: as §1

[3] = test system: Escherichia coli (E. coli—ATCC #8739); assay: Synergy test, microtiter plate high resolution MIC assay, bacterium; details: E. coli 8739, M9GY medium; for MIC: Escherichia coli, read-out: QB: MIC of second component (B) acting alone
Text: as §1

[4] = C. albicans 10231, PDB medium, 1 day
[5] = C. albicans 10231, PDB medium, 2 days
[6] = C. albicans 10231, PDB medium, 3 days
[7] = A. niger 16404, PDB medium, 3 days
[8] = A. niger 16404, PDB medium, 6 days
[9] = A. niger 16404, PDB medium, 10 days
[10] = ATCC16404, 72 h, A. niger 16404, PDB medium, 3 days, read-out: QB: MIC of second component (B) acting alone
[11] = ATCC10231, 48 h, C. albicans 10231, PDB medium, 2 days, read-out: QB: MIC of second component (B) acting alone
[12] = ATCC10231, 24 h, C. albicans 10231, PDB medium, 1 day, read-out: QB: MIC of second component (B) acting alone
[13] = ATCC16404, 240 h, A. niger 16404, PDB medium, 10 days, read-out: QB: MIC of second component (B) acting alone

Row | SMILES | MIC ([3]; ATCC8739, 24 h, 1 day) [µg/mL] | MIC [1, 11] [µg/mL] | SI (Synergy Index, Qa/QA+Qb/QB) [1, 4] | SI (Synergy Index, Qa/QA+Qb/QB) [1, 5] | SI (Synergy Index, Qa/QA+Qb/QB) [1, 6] | SI (Synergy Index, Qa/QA+Qb/QB) [2, 7] | SI (Synergy Index, Qa/QA+Qb/QB) [2, 8] | SI (Synergy Index, Qa/QA+Qb/QB) [2, 9] | SI (Synergy Index, Qa/QA+Qb/QB) ([3]; 1 day) | further results
1 | O=c1[nH]sc2ccccc12 [BIT, 1,2-benzisothiazolin-3-one] | – | – | 1.00 | 1.00 | 1.00 | 1.00 | 1.00 | 1.00 | 1.00 | QA: MIC of first component (A) acting alone [1, 4]: 20 ppm; QA: MIC of first component (A) acting alone [2, 8]: 20 ppm; QA: MIC of first component (A) acting alone [2, 9]: 20 ppm; QA: MIC of first component (A) acting alone ([3]; 1 day): 15 ppm; QA: MIC of first component (A) acting alone ([3]; 2 days): 15 ppm; SI (Synergy Index, Qa/QA+Qb/QB) ([3]; 2 days): 1.00; QA: MIC of first component (A) acting alone ([3]; 3 days): 15 ppm; SI (Synergy Index, Qa/QA+Qb/QB) ([3]; 3 days): 1.00
2 | O=C(O)CN(CCN(CC(=O)O)CC(=O)O)CCN(CC(=O)O)CC(=O)O [DTPA, diethylene triamine pentacetic acid] | – | – | 1.00 | – | – | 1.00 | 1.00 | – | – | QB: MIC of second component (B) acting alone [1, 4]: 2000 ppm; QB: MIC of second component (B) acting alone [2, 7]: 800 ppm; QB: MIC of second component (B) acting alone [2, 8]: 2000 ppm
3 | O=C(O)CC(NC(CC(=O)O)C(=O)O)C(=O)O (stereo not shown) [IDS, iminodisuccinate] | – | – | – | 1.00 | – | 1.00 | – | – | – | QB: MIC of second component (B) acting alone [2, 7]: 5000 ppm
4 | CC(C(=O)O)N(CC(=O)O)CC(=O)O (stereo not shown) [MDGA, methyl glycine diacetic acid] | – | – | – | – | 1.00 | – | – | 1.00 | – | –
5 | Cn1sccc1=O [MIT, 2-methyl-4-isothiazolin-3-one] | – | – | 1.00 | 1.00 | 1.00 | 1.00 | 1.00 | 1.00 | – | MIC ([1]; ATCC10231, 24 h, read-out: QA: MIC of first component (A) acting alone): 200 µg/mL; MIC ([1]; ATCC10231, 48 h, read-out: QA: MIC of first component (A) acting alone): 200 µg/mL; MIC ([1]; ATCC10231, 72 h, read-out: QA: MIC of first component (A) acting alone): 200 µg/mL; QA: MIC of first component (A) acting alone [2, 7]: 200 ppm; MIC ([2]; ATCC16404, 72 h, read-out: QA: MIC of first component (A) acting alone, A. niger 16404, PDB medium, 3 days): 300 µg/mL; MIC ([2]; ATCC16404, 144 h, read-out: QA: MIC of first component (A) acting alone, A. niger 16404, PDB medium, 6 days): 300 µg/mL; MIC ([2]; ATCC16404, 240 h, read-out: QA: MIC of first component (A) acting alone, A. niger 16404, PDB medium, 10 days): 300 µg/mL
6 | CCCCCCCCC(O)CO (stereo not shown) [decylene glycol, 1,2-decanediol] | – | 2000 | 1.00 | 1.00 | – | 1.00 | – | – | – | MIC [1, 12]: 2000 µg/mL; MIC [2, 10]: 2000 µg/mL
7 | CC(O)COc1ccccc1 (stereo not shown) [phenoxypropanol, propylene glycol phenyl ether] | – | – | – | – | 1.00 | 1.00 | – | – | – | MIC ([1]; ATCC10231, 72 h, C. albicans 10231, PDB medium, 3 days, read-out: QB: MIC of second component (B) acting alone): 5000 µg/mL; MIC [2, 10]: 3000 µg/mL
8 | O=P(O)(O)O[C@H]1[C@H](OP(=O)(O)O)[C@@H](OP(=O)(O)O)[C@H](OP(=O)(O)O)[C@@H](OP(=O)(O)O)[C@H]1OP(=O)(O)O [phytic acid, inositol hexaphosphoric acid] | 5000 | 3000 | – | 1.00 | – | – | – | 1.00 | 1.00 | MIC [2, 13]: 20000 µg/mL

Further lines, with some results ahead:

Row | MIC ([3]; ATCC8739, 24 h, 1 day) [µg/mL] | MIC [1, 11] [µg/mL] | SMILES | SI (Synergy Index, Qa/QA+Qb/QB) [1, 4] | SI (Synergy Index, Qa/QA+Qb/QB) [1, 5] | SI (Synergy Index, Qa/QA+Qb/QB) [1, 6] | SI (Synergy Index, Qa/QA+Qb/QB) [2, 7] | SI (Synergy Index, Qa/QA+Qb/QB) [2, 8] | SI (Synergy Index, Qa/QA+Qb/QB) [2, 9] | SI (Synergy Index, Qa/QA+Qb/QB) ([3]; 1 day) | further results
9 | 8000 | – | COc1ccc(C(=O)O)cc1 [anisic acid, 4-methoxybenzoic acid] | – | – | – | 1.00 | – | – | 1.00 | MIC [2, 10]: 2000 µg/mL
10 | – | 2000 | CCCCCCCCCC(=O)O [capric acid, decanoic acid] | – | 1.00 | – | – | 1.00 | – | – | MIC ([2]; ATCC16404, 144 h, A. niger 16404, PDB medium, 6 days, read-out: QB: MIC of second component (B) acting alone): 5000 µg/mL; SI (Synergy Index, Qa/QA+Qb/QB) ([3]; 3 days): 1.00; MIC ([3]; ATCC8739, 72 h, 3 days): 10000 µg/mL
11 | 8000 | – | O=C(O)/C=C\C(=O)O [maleic acid, 2-butenedioic acid] | – | 1.00 | – | – | – | – | 1.00 | –
12 | 5000 | 2000 | CCC(=O)O [propionic acid, ethanecarboxylic acid] | 1.00 | 1.00 | – | – | – | 1.00 | 1.00 | MIC [1, 12]: 2000 µg/mL; MIC [2, 13]: 500 µg/mL
